Experimental data from ChEMBL document CHEMBL3797139, “Synthesis and biological evaluation of 1,2-dithiol-3-thiones and pyrrolo[1,2-a]pyrazines as novel hypoxia inducible factor-1 (HIF-1) inhibitor” (Bioorg Med Chem, 2016).
Active and inactive are the calls of the source. No cut-off for these calls is given here.

Experiments:
HCT-116 [1] = assay: Reduction of insulin-induced HIF-1 alpha target gene expression in human HCT116 cells assessed as decrease in Glut-1 expression at 10 uM by RT-PCR analysis; assay type: functional; conditions: for inhibition at 10 µM: Homo sapiens, HCT-116
HCT-116 [2] = assay: Reduction of insulin-induced HIF-1 alpha expression in human HCT116 cells at 10 uM by western blot analysis; assay type: functional; conditions: for inhibition at 10 µM: Homo sapiens, HCT-116
[3] = Cytotoxicity against human HCT116 cells at 10 uM; assay type: cell-based; conditions: hct-116, 10 µM
[4] = Cytotoxicity against human HCT116 cells at 30 uM; assay type: cell-based; conditions: hct-116, 30 µM
HCT-116 [5] = assay: Reduction of insulin-induced HIF-1 alpha expression in human HCT116 cells at 3 uM by western blot analysis; assay type: functional, cell-based
[6] = Cytotoxicity against human HCT116 cells at 3 uM; assay type: cell-based; conditions: hct-116, 3 µM
HCT-116 [7] = assay: Reduction of insulin-induced HIF-1 alpha target gene expression in human HCT116 cells assessed as decrease in VEGF expression at 10 uM by RT-PCR analysis; assay type: functional
HCT-116 [8] = assay: Reduction of insulin-induced HIF-1 alpha expression in human HCT116 cells at 30 uM by western blot analysis; assay type: functional
HCT-116 [9] = assay: Reduction of insulin-induced HIF-1 alpha target gene expression in human HCT116 cells assessed as decrease in Glut-1 expression at 30 uM by RT-PCR analysis; assay type: functional
HCT-116 [10] = assay: Reduction of insulin-induced HIF-1 alpha target gene expression in human HCT116 cells assessed as decrease in VEGF expression at 30 uM by RT-PCR analysis; assay type: functional

Question: With CSc1c(C)c(SC)n2ccncc12.Cl as the molecule, how does the “inhibition (INH)” value (HCT-116 [1]) read?
Answer: 14%

Question: What about the “inhibition (INH)” value (HCT-116 [2]) of the same molecule?
Answer: 37%

Question: And the Activity [3]?
Answer: Non-toxic

Question: With S=c1cc(-c2cnccn2)ss1 as the molecule, how does the Activity [4] read?
Answer: Toxic

Question: Which results are given for CSc1c(SC)c2cnccn2c1SC.Cl?
Answer: inhibition at 10 µM (HCT-116 [2]): 6%; Activity [3]: Non-toxic

Question: Which Activity [4] does the source give for Cc1ccc(Cc2c(-c3cnccn3)ssc2=S)cc1 here?
Answer: Non-toxic

Question: For CSc1c(C)c(SC)n2ccncc12 [listing 1 of 2 here], which inhibition at 10 µM (HCT-116 [1]) is on record?
Answer: 14%

Question: What about the inhibition at 10 µM (HCT-116 [2]) of the same molecule?
Answer: 37%

Question: Which results are given for CC[C@@]1(O)C(=O)OCc2c1cc1n(c2=O)Cc2cc3c(CN(C)C)c(O)ccc3nc2-1 [TOPOTECAN]?
Answer: inhibition (HCT-116 [5]): Active; Activity [6]: Non-toxic

Question: Which inhibition at 10 µM (HCT-116 [2]) does the source give for CCc1c(SC)c2cnccn2c1SC.Cl here?
Answer: 86%

Question: What about the Activity [3] of the same molecule?
Answer: Non-toxic

Question: With CSc1c(Cc2ccc(Cl)cc2)c(SC)n2ccncc12.Cl as the molecule, how does the Activity [3] read?
Answer: Toxic

Question: With CSc1c(Cc2ccccc2)c(SC)n2ccncc12.Cl as the molecule, how does the inhibition at 10 µM (HCT-116 [1]) read?
Answer: 92%

Question: What about the inhibition at 10 µM (HCT-116 [2]) of the same molecule?
Answer: 81%

Question: What about the Activity [3] of the same molecule?
Answer: Non-toxic

Question: What about the inhibition at 10 µM (HCT-116 [7]) of the same molecule?
Answer: 77%

Question: With COc1ccc(Cc2c(-c3cnccn3)ssc2=S)cc1 as the molecule, how does the Activity [4] read?
Answer: Non-toxic

Question: Which Activity [4] does the source give for S=c1ssc(-c2cnccn2)c1Cc1ccccc1 here?
Answer: Non-toxic

Question: And the inhibition at 30 µM (HCT-116 [8])?
Answer: 41%

Question: For OCc1ccc(-c2nn(Cc3ccccc3)c3ccccc23)o1, which inhibition (HCT-116 [5]) is on record?
Answer: Active

Question: And the Activity [6]?
Answer: Non-toxic

Question: Which inhibition at 10 µM (HCT-116 [2]) does the source give for CSc1c(CCc2ccccc2)c(SC)n2ccncc12.Cl here?
Answer: 87%

Question: And the Activity [3]?
Answer: Toxic

Question: Which Activity [3] does the source give for COc1ccc(Cc2c(SC)c3cnccn3c2SC)cc1.Cl here?
Answer: Toxic

Question: For CCc1c(-c2cnccn2)ssc1=S, which Activity [4] is on record?
Answer: Non-toxic

Question: What does the source list for S=c1ssc(-c2cnccn2)c1-c1ccccc1?
Answer: inhibition (HCT-116 [9]): Active; Activity [4]: Non-toxic; inhibition at 30 µM (HCT-116 [8]): 8%; inhibition (HCT-116 [10]): Active

Question: What does the source list for S=c1ssc(-c2cnccn2)c1CCc1ccccc1?
Answer: Activity [4]: Non-toxic; inhibition at 30 µM (HCT-116 [8]): 65%

Question: With CCCc1c(SC)c2cnccn2c1SC.Cl as the molecule, how does the inhibition (HCT-116 [1]) read?
Answer: Active

Question: What about the inhibition at 10 µM (HCT-116 [2]) of the same molecule?
Answer: 90%

Question: And the Activity [3]?
Answer: Non-toxic

Question: And the inhibition (HCT-116 [7])?
Answer: Active

Question: With CCCc1c(-c2cnccn2)ssc1=S as the molecule, how does the inhibition at 30 µM (HCT-116 [9]) read?
Answer: 86%

Question: And the Activity [4]?
Answer: Non-toxic

Question: And the inhibition at 30 µM (HCT-116 [8])?
Answer: 76%

Question: And the inhibition at 30 µM (HCT-116 [10])?
Answer: 70%

Question: With Cc1c(-c2cnccn2)ssc1=S [OLTIPRAZ] as the molecule, how does the inhibition at 30 µM (HCT-116 [9]) read?
Answer: 59%

Question: What about the Activity [4] of the same molecule?
Answer: Non-toxic

Question: What about the inhibition at 30 µM (HCT-116 [8]) of the same molecule?
Answer: 48%

Question: And the inhibition at 30 µM (HCT-116 [10])?
Answer: 36%

Question: Which results are given for CCCCc1c(-c2cnccn2)ssc1=S?
Answer: Activity [4]: Non-toxic; inhibition at 30 µM (HCT-116 [8]): 80%

Question: For CSc1c(C)c(SC)n2ccncc12 [listing 2 of 2 here], which inhibition (HCT-116 [7]) is on record?
Answer: inactive

Question: Which inhibition (HCT-116 [1]) does the source give for CSc1c(-c2ccccc2)c(SC)n2ccncc12.Cl here?
Answer: Active

Question: And the inhibition at 10 µM (HCT-116 [2])?
Answer: 3%

Question: What about the Activity [3] of the same molecule?
Answer: Non-toxic

Question: What about the inhibition (HCT-116 [7]) of the same molecule?
Answer: Active

Question: Which Activity [3] does the source give for CSc1cc(SC)n2ccncc12.Cl here?
Answer: Non-toxic

Question: With CSc1c(Cc2ccc(C)cc2)c(SC)n2ccncc12.Cl as the molecule, how does the Activity [3] read?
Answer: Toxic

Question: For CCCCc1c(SC)c2cnccn2c1SC.Cl, which Activity [3] is on record?
Answer: Non-toxic

Question: For S=c1ssc(-c2cnccn2)c1Cc1ccc(Cl)cc1, which Activity [4] is on record?
Answer: Non-toxic
